According to patent publication US9359378B2, “Substituted oxazolo[3,4-a]pyrazines as pharmaceutcals” (BIOLAB SANUS FARMACÊUTICA LTDA., priority 2014, dated 2016):

Key:
PDE5 = molecular target: T1, PDE5 (Homo sapiens, UniProt O76074); assay: PDE5 enzyme inhibition (SPA, enzyme isolated from human platelets); type: biochemical; settings: FIGS. 14 and 15, test concentration not given
T1 construct: using an enzyme isolated from Cerep human platelets; tissue Cerep; host or cells: human platelets
Description: The effects of compounds BL-230 and BL-236 on human PDE5 enzyme activity was quantified by measuring the production of 5′GMP from cGMP using an enzyme isolated from Cerep human platelets and the utilized detection method was scintillation proximity assay (SPA).
(§1) The test compound, the reference compound or water (control) were added to a buffer containing 40 mM Tris-HCl (pH 7.8), 3 mM MgCl2, 1.4 mM DTT, 0.21% BSA, 200 mM ammonium chloride (NH4Cl), 1 μM cGMP and 0.1 μCi of [^3H]cGMP. Then the reaction was started by adding the enzyme (final amount depending on the efficiency of the isolation) and the mixture was incubated for 60 minutes at 22° C. For basal control measurements, the enzyme was omitted from the reaction mixture. Following this, the SPA incubation beads were added. After 20 min at 22° C. under agitation, the amount of [^3H] 5′GMP was quantified with a scintillation counter (Topcount, Packard). The results were expressed as an inhibition percentage of the control enzyme activity. The standard inhibitory reference compound dipyridamole was used, which was tested in each experiment at several concentrations to obtain an inhibition curve from which its IC50 value was calculated. […]

PDE6 = molecular target: T2, PDE6 (Bos taurus, UniProt P11541+P23439); assay: PDE6 enzyme inhibition (SPA, enzyme isolated from bovine retina); type: biochemical; settings: FIGS. 14 and 15, test concentration not given
T2 construct: using an enzyme isolated from Cerep bovine retina; tissue Cerep; host or cells: bovine retina
T2 sequence (P11541 2-856 limits assumed): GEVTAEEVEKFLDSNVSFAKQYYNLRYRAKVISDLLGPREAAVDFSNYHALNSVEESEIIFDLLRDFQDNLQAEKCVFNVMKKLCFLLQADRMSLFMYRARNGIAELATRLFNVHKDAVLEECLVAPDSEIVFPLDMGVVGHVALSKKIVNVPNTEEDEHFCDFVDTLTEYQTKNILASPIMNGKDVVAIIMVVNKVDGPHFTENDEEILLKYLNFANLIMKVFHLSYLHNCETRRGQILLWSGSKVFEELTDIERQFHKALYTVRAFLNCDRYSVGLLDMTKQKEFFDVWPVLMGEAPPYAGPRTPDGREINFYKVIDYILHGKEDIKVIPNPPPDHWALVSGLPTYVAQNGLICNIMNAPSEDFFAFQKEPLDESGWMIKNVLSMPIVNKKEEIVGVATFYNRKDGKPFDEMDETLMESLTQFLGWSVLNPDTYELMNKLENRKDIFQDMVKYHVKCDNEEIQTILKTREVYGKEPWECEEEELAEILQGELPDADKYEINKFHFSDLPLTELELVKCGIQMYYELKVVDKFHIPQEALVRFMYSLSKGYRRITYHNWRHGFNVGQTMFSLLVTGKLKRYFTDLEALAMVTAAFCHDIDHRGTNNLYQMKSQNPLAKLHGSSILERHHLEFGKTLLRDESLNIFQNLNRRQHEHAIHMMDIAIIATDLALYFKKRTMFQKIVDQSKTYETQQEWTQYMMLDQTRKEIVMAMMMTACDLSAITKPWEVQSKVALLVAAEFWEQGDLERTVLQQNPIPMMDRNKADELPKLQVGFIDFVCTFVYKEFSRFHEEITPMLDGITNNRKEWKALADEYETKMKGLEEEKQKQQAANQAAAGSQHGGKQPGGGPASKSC
T2 sequence (P23439 2-850 limits assumed): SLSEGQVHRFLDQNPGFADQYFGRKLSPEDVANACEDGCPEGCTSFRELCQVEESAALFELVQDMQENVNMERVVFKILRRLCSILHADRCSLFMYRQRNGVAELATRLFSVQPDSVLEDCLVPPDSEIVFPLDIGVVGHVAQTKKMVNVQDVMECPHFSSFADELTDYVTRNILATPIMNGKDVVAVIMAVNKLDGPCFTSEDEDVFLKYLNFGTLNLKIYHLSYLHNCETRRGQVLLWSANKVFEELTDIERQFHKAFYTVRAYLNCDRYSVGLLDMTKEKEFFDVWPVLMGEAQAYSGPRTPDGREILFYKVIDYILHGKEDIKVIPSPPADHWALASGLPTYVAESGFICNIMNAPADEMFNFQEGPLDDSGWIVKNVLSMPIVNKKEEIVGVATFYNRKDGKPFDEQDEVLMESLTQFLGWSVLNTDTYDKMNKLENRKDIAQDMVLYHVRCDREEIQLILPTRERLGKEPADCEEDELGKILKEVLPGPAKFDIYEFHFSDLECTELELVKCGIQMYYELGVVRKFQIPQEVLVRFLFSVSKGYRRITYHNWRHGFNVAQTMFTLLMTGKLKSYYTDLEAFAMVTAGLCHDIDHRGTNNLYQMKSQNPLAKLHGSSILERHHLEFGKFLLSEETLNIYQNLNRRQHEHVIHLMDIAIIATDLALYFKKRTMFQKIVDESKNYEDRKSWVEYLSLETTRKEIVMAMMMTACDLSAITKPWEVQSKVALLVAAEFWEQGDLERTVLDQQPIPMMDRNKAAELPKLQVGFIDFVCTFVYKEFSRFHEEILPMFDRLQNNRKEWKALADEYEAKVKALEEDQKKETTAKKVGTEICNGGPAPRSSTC
Description: The effects of compounds BL-230 and BL-236 on PDE6 human enzyme activity were quantified by measuring the production of 5′GMP from cGMP, using an enzyme isolated from Cerep bovine retina of and the detection method used was scintillation proximity assay (SPA).
as §1, with “mM NH4Cl, 2 uM” for “mM ammonium chloride (NH4Cl), 1 μM”, “and 0.05” for “and 0.1”, “of [^3H] cGMP.” for “of [^3H]cGMP.”, “20 minutes” for “20 min”, “compound zaprinast” for “compound dipyridamole”

| Compound | inhibition of PDE5 enzyme activity (PDE5) [%] | inhibition of PDE6 enzyme activity (PDE6) [%] |
| --- | --- | --- |
| C[C@@H](CO)N1CC(=O)N2C(=C(c3c[nH]c4ccccc34)OC2c2ccc3c(c2)OCO3)C1=O (stereo partly drawn) [BL-236, 3-(benzo[d][1,3]dioxol-5yl)-7-((S)1-hydroxypropan-2yl)-1-(1H-indol-3-yl)-6,7-dihydro-3H-oxazolo[3,4-a]pyrazine-5,8-dione] | 86 | 90 |
| O=C1C2=C(c3c[nH]c4ccccc34)OC(c3ccc4c(c3)OCO4)N2C(=O)CN1CCO (stereo not shown) [BL-230, 3-(benzo[d][1,3]dioxol-5yl)-7-(2-hydroxyethyl)-1-(1H-indol-3-yl)-6,7-dihydro-3H-oxazolo[3,4-a]pyrazine-5,8-dione] | 90 | 85 |
